According to US6562844B2, “Oxazolidinone combinatorial libraries, compositions and methods of preparation” (Pharmacia & Upjohn Company, priority 1998, dated 2003):
Converted amounts (≈) assume the structure as drawn.

System: S. aureus
Experiment: Antimicrobial activity MIC, microdilution whole cell assay, S. aureus
Type: cell-based
Conditions: Staphylococcus aureus; standard whole cell assay; read-out: MIC against S. aureus
Experimental: Assay Protocol for Antimicrobial Activity. Minimum inhibitory concentrations (MICs) were determined using the microdilution method in 96-well format plates. Compounds were suspended in DMSO at 5 or 10 mg/ml and stored at 4° C. until used. They were diluted in Mueller-Hinton Broth (MHB) or Trypticase Soy Broth (TSB) and used for MIC determination. The range of concentrations tested was 64-0.0625 μg/ml final concentration using a two-fold dilution system.
The inoculum was prepared from cells grown on Trypticase Soy Agar (TSA) and incubated overnight at 35° C., 5 to 10 colonies were used to inoculate MHB or TSB broths, and the culture was incubated overnight at 35° C. The overnight culture was diluted 1:10, incubated for one hour at 35° C., diluted to the appropriate inoculum size and applied to the wells containing broth and test compound. Inoculum sizes were 1×10^5 to 5×10^5 CFU/ml. Strains used included P. aeruginosa VPAE1001, E. faecium V VEFA1001, E. faecium VanA VEFA1002, S. aureus VSAU1003, S. aureus MRSA VSAU1004, E. coli VEC05, and E. coli (arc-) VEC05.
Plates were incubated at 35° C. for 48 hours and MIC were recorded after 18 hours of incubation, for bacteria, and 48 for yeasts.

CON=Cc1ccc(/C=C/C(=O)NC[C@H]2CN(c3ccc(C(N)=O)c(F)c3)C(=O)O2)cc1
MIC: ~0.5 µg/mL (≈ 1.14 µM)
